TGI and GI50 data for 9 compounds are collected here from PubChem BioAssay (NCI).

SMILES strings stand for the structures. Values joined by “and” are separate entries in the source; they are usually repeats but may differ in a detail not shown here. Equal entries are not always repeated.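 These data come from cells grown in 96-well plates and exposed to compound for 48 hours at five concentrations. GI50 = concentration required for 50% inhibition of growth. TGI is the concentration that stops growth completely.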 Some results are limits rather than exact numbers.

Test systems include 786-0 renal; ACHN renal; K-562 leukemia; MALME-3M melanoma; SF-539 CNS; T-47D breast; BT-549 breast; SNB-19 CNS.
Common to all, as to assay: DTP human tumour cell line panel, 48 h

`CC(=O)OCC1OC(n2ncc(=O)[nH]c2=O)C(OC(C)=O)C1OC(C)=O` (stereo not drawn): the TGI in the experiment with 786-0 renal, in the experiment with ACHN renal, in the experiment with K-562 leukemia, in the experiment on MALME-3M melanoma, in the experiment on SF-539 CNS and in the experiment with T-47D breast was above 100 µM throughout.
Regarding `O=C1CC(CC(OCc2ccccc2)C(OCc2ccccc2)C(COCc2ccccc2)OCc2ccccc2)CC(=O)N1` (stereo not drawn), the GI50 with 786-0 renal is > 100 µM and 11 µM; in the experiment with ACHN renal it was > 100 µM and 18.2 µM; in the experiment with BT-549 breast, > 100 µM and 12.6 µM; in the experiment with MALME-3M melanoma, > 100 µM and 15.5 µM; in the experiment with SF-539 CNS, > 100 µM and 16.8 µM; with SNB-19 CNS, > 100 µM and 33.8 µM. In addition, the concentration for total growth inhibition (TGI) in the experiment with 786-0 renal was > 100 µM and 49.3 µM; in the experiment with ACHN renal it was above 100 µM; in the experiment with BT-549 breast, > 100 µM and 25.3 µM; with K-562 leukemia, above 100 µM; with MALME-3M melanoma, > 100 µM and 32.4 µM; in the experiment with SF-539 CNS, > 100 µM and 35.5 µM. The compound further returned a concentration for total growth inhibition (TGI) in the experiment with SNB-19 CNS above 100 µM.
In the case of `O=C1c2cc(F)ccc2-c2c1c1ccc([N+](=O)[O-])cc1c(=O)n2CCCBr`, the GI50 in the experiment with 786-0 renal was 1.96 µM; in the experiment on ACHN renal, 3.91 µM; in the experiment with K-562 leukemia it was 22.4 µM; in the experiment on MALME-3M melanoma, 66.3 µM; in the experiment with SNB-19 CNS, 8.13 µM; with T-47D breast, 7.53 µM. Besides, the concentration for total growth inhibition (TGI) is 9.31 µM with 786-0 renal; above 100 µM in the experiment with ACHN renal; above 100 µM with K-562 leukemia; above 100 µM in the experiment on MALME-3M melanoma; above 100 µM in the experiment with SNB-19 CNS; above 100 µM with T-47D breast.
As to `COc1ccc(-c2[nH]nc(N)c2-c2cc(OC)c(OC)c(OC)c2)cc1`, the concentration for 50% growth inhibition (GI50) with 786-0 renal is 0.0663 µM; with ACHN renal, 0.0806 µM; with BT-549 breast, 0.0873 µM; in the experiment on K-562 leukemia, 0.0315 µM; with MALME-3M melanoma, 0.0337 µM; in the experiment with SF-539 CNS, 0.0246 µM. Moreover, the GI50 in the experiment on SNB-19 CNS was 0.519 µM. Moreover, the TGI is above 58.3 µM with 786-0 renal; above 100 µM in the experiment with ACHN renal; 4.29 µM in the experiment on BT-549 breast; above 100 µM in the experiment on K-562 leukemia; above 100 µM in the experiment with MALME-3M melanoma; 0.0665 µM with SF-539 CNS. Moreover, in the experiment with SNB-19 CNS, the TGI was above 100 µM.
`N#CC1=C(N)Oc2c(sc3c(Br)cccc23)C1c1ccc(Cl)cc1` (stereo not drawn): the GI50 in the experiment on 786-0 renal was 0.663 µM; in the experiment on ACHN renal, 0.531 µM; in the experiment on BT-549 breast, 0.962 µM; in the experiment on K-562 leukemia, 0.322 µM; in the experiment with SNB-19 CNS, 0.822 µM; with T-47D breast, 0.464 µM. Further, the total growth inhibition concentration (TGI) in the experiment with 786-0 renal was 2.71 µM; with ACHN renal, 2.46 µM; in the experiment with BT-549 breast it was 12.7 µM; with K-562 leukemia it was 3.54 µM; with SNB-19 CNS, 12.8 µM; with T-47D breast, 11.6 µM.
As to `CC(=O)OCCCC#CC#Cc1cccc(=O)o1`, the GI50 is 19 µM with 786-0 renal; 19.2 µM in the experiment on ACHN renal; 10.6 µM in the experiment on BT-549 breast; 5.38 µM in the experiment with K-562 leukemia; 25.6 µM with SNB-19 CNS; 20 µM in the experiment with T-47D breast. Moreover, the TGI with 786-0 renal was 35.1 µM; in the experiment on ACHN renal it was 35 µM; in the experiment on BT-549 breast, 26.6 µM; in the experiment on K-562 leukemia it was 28.9 µM; in the experiment with SNB-19 CNS, 67.7 µM; in the experiment on T-47D breast it was 51.1 µM.
As to `Cc1[nH]nc2ncc(C(=O)N3CCC[C@H]3c3ccc(Cl)cc3)cc12`, the GI50 is 47.7 µM in the experiment on 786-0 renal; 36.3 µM with ACHN renal; 50.6 µM in the experiment on BT-549 breast; 37.1 µM in the experiment on K-562 leukemia; above 100 µM in the experiment with MALME-3M melanoma; 44.4 µM in the experiment with SF-539 CNS. Further, in the experiment on SNB-19 CNS, the GI50 was above 100 µM. The TGI in the experiment on 786-0 renal, with ACHN renal, with BT-549 breast, in the experiment with K-562 leukemia, with MALME-3M melanoma and with SF-539 CNS was above 100 µM each time. The TGI in the experiment on SNB-19 CNS is above 100 µM.
Regarding `CCNCCNc1cc(-c2ccc(C(F)(F)F)cc2)c(C#N)c2nc3cc(Cl)c(Cl)cc3n12`, the GI50 was 1.53 µM in the experiment on 786-0 renal; 1.61 µM with ACHN renal; 0.183 µM in the experiment on K-562 leukemia; 1.74 µM in the experiment with SF-539 CNS; 1.88 µM with SNB-19 CNS; 1.94 µM in the experiment on T-47D breast. Moreover, the TGI worked out at 3.02 µM in the experiment on 786-0 renal; 3.1 µM in the experiment with ACHN renal; 0.365 µM in the experiment on K-562 leukemia; 3.23 µM in the experiment on SF-539 CNS; 3.65 µM in the experiment on SNB-19 CNS; 3.78 µM in the experiment with T-47D breast.
In the case of `COC(=O)[C@@H](C)C[C@H](Cc1ccccc1)NC(=O)c1csc([C@@H](C[C@H](C(C)C)N(C)C(=O)[C@@H](NC(=O)[C@H]2CCCN2C)C2CC2)OC(C)=O)n1`, the GI50 in the experiment on 786-0 renal was 0.00479 µM and 0.0025 µM; in the experiment with ACHN renal, 0.00419 µM and 0.0025 µM; with BT-549 breast, 0.000664 µM and < 0.0025 µM; in the experiment with K-562 leukemia, 0.000352 µM and 0.0025 µM; with MALME-3M melanoma it was 4.41 µM; in the experiment with SF-539 CNS, 0.00172 µM and < 0.0025 µM. Also, the concentration for 50% growth inhibition (GI50) in the experiment with SNB-19 CNS is 0.00125 µM and 0.0025 µM. In addition, the total growth inhibition concentration (TGI) is above 25 µM in the experiment on 786-0 renal; above 25 µM with ACHN renal; above 25 µM in the experiment on K-562 leukemia; above 25 µM with MALME-3M melanoma; 0.00659 µM and < 0.0025 µM in the experiment on SF-539 CNS; above 25 µM with SNB-19 CNS.
